This note sets out measurements from PMC9817077, “Simple, Reliable Protocol for High-Yield Solubilization of Seedless Amyloid-β Monomer” (ACS Chemical Neuroscience, 2022).

The nature of data set [1]: Global fitting of ThT self-assembly curves to nucleated polymerization models. The data set is classed as physicochemical. The settings on record: global fit. The source says: To test whether an equivalent analysis favored
106 four models to ﬁt the experimental data. Each model was globally ﬁtted, with all kinetic 107 parameters shared across initial monomer concentrations.
Firstly, we tested the Oosawa model (19). In this model, ﬁbrils form by primary nucle-ation, which behaves as annthc -order multimerization process. Fibrils then grow by stepwise addition of monomers to the ﬁbril end, which behaves as a second-order association between a ﬁbril and a free monomer. This model admits the exact solution (13, 20) […]
m(0) = 1−sech2/nc 2 λt , (S2)
109 Here, kn is the rate parameter for primary nucleation and k+ is the rate parameter for 110 elongation. As shown in Figure S8(a), the Oosawa model results in a poor ﬁt. Speciﬁcally, 111 the lack of a secondary process means the model cannot produce exponential early-time 112 scaling, and lacks a pronounced lag phase. This […] our observation of exponential 113 early-time kinetics, and the ﬁndings of previous work (16).
Next, we tested models that included a secondary process. Three such processes were considered: fragmentation (13, 14, 21), single-step secondary nucleation (14), and saturable multi-stepsecondarynucleation(17,18). Inallthreecases, theapproximatesolutionhasthe same mathematical form, and the models diﬀer only in the deﬁnitions of certain parameters.
The general equation is (13, 14, 21)
M(t) B− +C+eκt κ˜k∞e−k∞t, (S4) m(0) = 1− B+ +C+eκt B− +C+
Here, λ has the same deﬁnition as Eq. (S3), andκ and k∞ have model-speciﬁc deﬁnitions.
Since fragmentation can be treated as a special case of secondary nucleation (14, 16), we begin with the deﬁnitions for single-step secondary nucleation, […]
114 where k2 is the (n2 + 1)th-order rate constant for formation of a secondary ﬁbril nucleus 115 of eﬀective sizen2, at a rate also proportional to the concentration of monomers already 116 incorporated into ﬁbrils (14).
The correct solution for fragmentation can be obtained by taking the limit n2→ 0 (in practice, setting n2 = 10−3) and substituting (13, 14, 21)
117 wherekf is the rate constant for fragmentation at each possible break point along the length 118 of the ﬁbril. When ﬁtting the fragmentation-dominated model, the value ofkf was con-119 strained such thatkfk+ =knk+× (10−5.5 M)nc/(10−8 M), a constraint that was also applied 120 in (16). This ensures that fragmentation becomes dominant when the ﬁbril mass concen-121 tration M(t)≈ 10 nM for a reaction with initial monomer concentration m(0) =√10 µM, 122 forcing the ﬁtting algorithm to maintain an appreciable level of fragmentation. Without 123 this constraint, kf is simply minimized in order to attain a high concentration-dependence, […]
124 resulting in a ﬁt very similar to that obtained for the Oosawa model (16). […]
used with the modiﬁed deﬁnitions
A(t) =− λ2nc− 2k2k+K2m(0)log [K2 +m(t)n2]n2
125 where K2 is the eﬀective Michaelis constant for secondary nucleation, and2F1 is a hyper-126 geometric function. Note that, unlike traditional Michaelis-Menten kinetics, the rate of 127 saturable secondary nucleation has an nth2 -order rather than a linear dependence on m(t) in 128 the low concentration limit (15, 17, 18).
129 As shown in Figure S8(b), fragmentation succeeds in producing exponential early-time 130 scaling and a pronounced lag phase, but also results in a weak concentration-dependence 131 and an overly sharp approach to the maximum ﬂuorescence intensity. The latter two issues 132 are caused by the insensitivity of fragmentation to depletion of the free monomer, and 133 also lead to a high ﬁtted reaction order of primary nucleation (nc = 5.23), an attempt to 134 compensate for the weak concentration scaling of the secondary process. Had the value 135 of kf been left unconstrained, the ﬁt would instead have done this by minimising the role 136 of the concentration-insensitive secondary pathway, producing a ﬁt similar to Figure S8(a).
138 better ﬁt, as it is able to simultaneously produce exponential early-time scaling, the correct […]

Data set [2] in a line: Removal of HMW material by ultracentrifugation, AF4-MALS and ThT. The settings on record: for integrated HMW UV signal after cross-flow, equivalent mass of Aβ(1-42): 200 µl injected. The data set is classed as physicochemical. As to the method:
4 S3 Removal of HMW material from 50 mM NaOH Aβ
5 preparations by ultracentrifugation
8 that attempts to remove any putative seed or oligomers had no impact on the self-assembly 9 kinetics. To complement this, and further explore the nature of the HMW contaminant that 10 eluted after cross-ﬂow in AF4 runs, we removed the HMW material by ultracentrifugation 11 and examined the eﬀect on the self-assembly kinetics. Firstly, an Aβ(1-42) sample was re-12 solubilized to a concentration of 1 mg/ml peptide by sonication for 5 min in 50 mM NaOH.
14 NaOH, centrifuged at 436,000g for 1 h, and examined by AF4-MALS and ThT assays. The 15 dilution was carried out to obtain a suﬃciently large volume for ultracentrifugation. As a 16 control, another aliquot from the same re-solubilized sample was diluted in the same manner, 17 and incubated in a centrifuge tube for the same period of time without ultracentrifugation.
18 Both samples were kept at 21 °C during ultracentrifugation/incubation. For the AF4-MALS 19 experiments, a larger-than-usual injection volume of 200 µl was used to ensure the same mass […]
21 the elugram. For the ThT assays, the buﬀer was pre-adjusted to account for the increased […]
24 the integral of the UV signal after cross-ﬂow; in the control, the integrated HMW signal was […]
26 so the true mass is unknown), whereas in the centrifuged sample the integral was equivalent […]
Similarly, ultracentrifugation caused an approximately 4× reduction
28 in the integral of the LS 90o signal. Although the composition and degree of homogeneity of […]
30 that the majority of this material was removed. Despite removal of this material, the treated […]
One possibility is that the HMW fraction
However, the fact that the full expected 20 µg of
Instead, it may consist of small quantities of dust
36 or pre-existing contaminants in the vials, which were resistant to 50 mM NaOH but had no 37 observable seeding potential. […]
the self-assembly kinetics. Panels show (a) the UV280 signal, (b) the LS 90o signal, (c) the approximate Mw distribution, derived from MALS analysis of the ROI from 3.3-12.0 min using a linear Zimm ﬁtting approach, and (d) the corresponding ThT self-assembly kinetics […]
Color scheme: red, 1 mg/ml sample before dilution (not included in ThT assay); green, 10× diluted 0.1 mg/ml sample, incubated for 1 h before use in experiments; blue, 10× diluted 0.1 mg/ml sample, centrifuged at 436,000g for 1 h and then used in experiments.
(1 picture or pasted object on this page, not shown here)

The mark [3] stands for this setting: 436,000g for 1 h against control.

On to “Aβ(1-42): Ultrapure recombinant Aβ(1-42) purchased from rPeptide, lyophilized from HFIP; disordered amyloid-forming peptide”, for which the nc in data set [1] (fragmentation model, kf constrained) is listed as 5.23; in data set [1] (primary nucleation only (Oosawa model), 1.5–6.0 μM, sample 50-5-N-13) it was 2.37; in data set [1] (saturable secondary nucleation, nc = n2 constrained) it was 2.37; in data set [1] (single-step secondary nucleation, nc = n2 constrained) it was 1.68. Moreover, the “K2 (effective Michaelis constant for secondary nucleation)” value in data set [1] (saturable secondary nucleation) came out at 2.74 µM. Besides, the n2 in data set [1] (saturable secondary nucleation) came to 2.37; in data set [1] (single-step secondary nucleation) it was 1.68. For the same substance, the “integrated HMW UV signal after cross-flow, equivalent mass of Aβ(1-42)” value was 0.365 µg in data set [2] (0.1 mg/ml in 5 mM NaOH, centrifuged at 436,000g for 1 h, 21 °C) and 1.004 µg in data set [2] (control: 10× diluted to 0.1 mg/ml in 5 mM NaOH, incubated 1 h at 21 °C without ultracentrifugation). Further, the “reduction in the integral of the LS 90° signal by ultracentrifugation” value in data set [2] (setting [3]) was “approximately 4 ×”. Further, the “reduction in the integral of the UV signal after cross-flow by ultracentrifugation” value in data set [2] (setting [3]) is “approximately 3 ×”.
